Data published in article PMC11144196, “Structural basis for human mitochondrial tRNA maturation” (Nature Communications, 2024).
One block for each molecule: values may come before it.

What was measured:
[1] = biological target: T1, TRNT1 (Homo sapiens, UniProt Q96Q11); assay: differential scanning fluorimetry (SYPRO Orange); format: binding; conditions: 5 uM protein, pH 7.5, 150 mM NaCl; thermal stabilisation
T1 construct: residues 42-434, no mitochondrial transport signal; N-terminal His6-TEV tag cleaved; E. coli KRX
T1 sequence (Q96Q11 42-434): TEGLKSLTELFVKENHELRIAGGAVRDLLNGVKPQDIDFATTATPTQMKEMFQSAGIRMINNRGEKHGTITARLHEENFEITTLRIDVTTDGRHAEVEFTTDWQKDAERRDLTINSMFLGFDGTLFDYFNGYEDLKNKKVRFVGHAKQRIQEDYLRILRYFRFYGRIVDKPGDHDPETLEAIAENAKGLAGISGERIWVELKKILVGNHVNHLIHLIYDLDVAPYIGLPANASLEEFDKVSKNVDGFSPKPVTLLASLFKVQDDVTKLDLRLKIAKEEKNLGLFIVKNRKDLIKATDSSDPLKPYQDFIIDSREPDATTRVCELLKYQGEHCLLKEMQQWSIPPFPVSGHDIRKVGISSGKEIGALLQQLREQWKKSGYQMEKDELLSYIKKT

[2] = biological target: T1, TRNT1; assay: cryo-EM structure; format: binding; conditions: TRNT1 active site; complex with TRMT10C(SAH)/SDR5C1(NADH)/tRNA-Ile; 0.5 mM CDP, pH 8.0
[3] = biological target: T2, TRMT10C/SDR5C1 complex (NADH site in SDR5C1) (Homo sapiens, UniProt Q99714); assay: differential scanning fluorimetry (SYPRO Orange); format: binding; conditions: 5 uM protein, pH 7.5, 150 mM NaCl; thermal stabilisation
T2 construct: gene HSD17B10; SDR5C1 residues 1-261 co-expressed with TRMT10C residues 40-403 in E. coli; SDR5C1 tetramer; HisTrap purified; with tRNA methyltransferase 10 homolog C
T2 sequence (Q99714 1-261): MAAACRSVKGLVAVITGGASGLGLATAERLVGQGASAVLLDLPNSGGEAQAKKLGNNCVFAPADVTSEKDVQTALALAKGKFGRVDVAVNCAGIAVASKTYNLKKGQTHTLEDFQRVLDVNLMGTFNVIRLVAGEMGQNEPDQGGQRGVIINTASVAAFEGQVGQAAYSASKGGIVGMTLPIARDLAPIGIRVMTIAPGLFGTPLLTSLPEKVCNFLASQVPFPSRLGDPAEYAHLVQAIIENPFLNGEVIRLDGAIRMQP
T2 sequence (Q7L0Y3 40-403 partner): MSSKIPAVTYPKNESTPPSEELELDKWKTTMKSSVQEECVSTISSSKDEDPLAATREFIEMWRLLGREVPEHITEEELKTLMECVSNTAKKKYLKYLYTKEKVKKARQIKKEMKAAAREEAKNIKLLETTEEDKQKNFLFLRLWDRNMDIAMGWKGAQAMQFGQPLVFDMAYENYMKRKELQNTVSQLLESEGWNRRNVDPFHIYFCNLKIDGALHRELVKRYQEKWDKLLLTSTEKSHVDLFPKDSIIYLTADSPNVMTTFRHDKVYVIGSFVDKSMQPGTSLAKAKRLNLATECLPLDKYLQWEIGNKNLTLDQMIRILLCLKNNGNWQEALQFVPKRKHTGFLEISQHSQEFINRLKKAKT

[4] = biological target: T3, TRMT10C/SDR5C1 complex (SAM/SAH site in TRMT10C) (Homo sapiens, UniProt Q7L0Y3); assay: cryo-EM structure; format: binding; conditions: methyltransferase active site of TRMT10C; with NADH and pre-tRNA-Ile (8CBO); also with PRORP D479A (8CBK), ELAC2 H548A (8CBL) or TRNT1 (8CBM)
T3 construct: TRMT10C residues 40-403 (no mitochondrial transport signal) co-expressed with SDR5C1 residues 1-261 in E. coli; 2:4 TRMT10C:SDR5C1; HisTrap purified; with 3-hydroxyacyl-CoA dehydrogenase type-2
T3 sequence (Q7L0Y3 40-403): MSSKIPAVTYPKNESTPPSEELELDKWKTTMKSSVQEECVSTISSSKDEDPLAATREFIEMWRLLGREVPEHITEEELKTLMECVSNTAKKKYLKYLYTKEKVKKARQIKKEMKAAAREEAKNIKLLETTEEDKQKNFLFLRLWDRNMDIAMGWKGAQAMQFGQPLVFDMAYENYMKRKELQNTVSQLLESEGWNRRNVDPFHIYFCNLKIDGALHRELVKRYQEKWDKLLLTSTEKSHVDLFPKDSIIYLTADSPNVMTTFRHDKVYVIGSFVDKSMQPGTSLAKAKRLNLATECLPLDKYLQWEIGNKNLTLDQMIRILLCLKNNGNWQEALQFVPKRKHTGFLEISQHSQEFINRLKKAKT
T3 sequence (Q99714 1-261 partner): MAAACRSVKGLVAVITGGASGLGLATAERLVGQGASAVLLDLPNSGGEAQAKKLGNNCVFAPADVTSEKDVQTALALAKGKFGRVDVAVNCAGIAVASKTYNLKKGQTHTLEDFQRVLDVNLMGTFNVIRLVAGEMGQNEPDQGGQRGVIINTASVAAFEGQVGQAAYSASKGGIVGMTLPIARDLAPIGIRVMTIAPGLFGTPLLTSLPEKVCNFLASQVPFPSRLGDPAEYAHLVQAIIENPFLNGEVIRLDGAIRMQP

[5] = biological target: T3, TRMT10C/SDR5C1 complex (SAM/SAH site in TRMT10C); assay: differential scanning fluorimetry (SYPRO Orange); format: binding; conditions: 5 uM protein, pH 7.5, 150 mM NaCl; thermal stabilisation
[6] = biological target: T3, TRMT10C/SDR5C1 complex (SAM/SAH site in TRMT10C); assay: 3H-methyl transfer to pre-tRNA, scintillation counting; format: biochemical; conditions: pre-tRNA-Ile (G9) or pre-tRNA-His-Ser (A9), pH 8.5, 5 mM MgCl2, 37 °C; labelled compound
[7] = biological target: T4, PRORP D479A (residues 45-583) (human, UniProt O15091 45-583, D479A); assay: cryo-EM structure; Complex 2: 4 uM TRMT10C/SDR5C1, 40 uM SAH, 40 uM NADH, 20 uM pre-tRNA^His-Ser, then 10 uM PRORP D479A; 50 mM Tris pH 8.0, 100 mM NaCl, 1 mM TCEP; PRORP sits on the pre-tRNA held by the subcomplex; conditions: both partners purified
T4 construct: human PRORP (protein-only RNase P endoribonuclease), UniProt O15091, residues 45-583; pET28a-derived vector, His6-TEV site; treated with TEV protease; source: E. coli BL21(DE3) Rosetta, purified like WT (HisTrap, TEV, SEC); not shown: His6, N-terminal, cleaved
T4 sequence (looked up): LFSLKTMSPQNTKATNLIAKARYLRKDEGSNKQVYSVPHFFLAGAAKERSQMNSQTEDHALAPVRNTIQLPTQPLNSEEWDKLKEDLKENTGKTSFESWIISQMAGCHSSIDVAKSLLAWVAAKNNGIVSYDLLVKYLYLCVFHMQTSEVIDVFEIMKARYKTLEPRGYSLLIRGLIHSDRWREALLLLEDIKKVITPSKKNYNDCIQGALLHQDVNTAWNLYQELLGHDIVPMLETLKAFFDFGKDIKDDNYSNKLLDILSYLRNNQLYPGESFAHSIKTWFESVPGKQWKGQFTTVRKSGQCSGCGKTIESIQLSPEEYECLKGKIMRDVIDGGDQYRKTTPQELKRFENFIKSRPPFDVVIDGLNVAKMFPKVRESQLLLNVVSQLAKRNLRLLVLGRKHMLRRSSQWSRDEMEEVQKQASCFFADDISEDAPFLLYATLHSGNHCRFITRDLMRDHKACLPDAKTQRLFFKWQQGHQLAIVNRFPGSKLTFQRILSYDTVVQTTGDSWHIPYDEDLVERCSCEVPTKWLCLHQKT

[8] = biological target: T5, ELAC2 H548A (residues 31-826) (human, UniProt Q9BQ52 31-826, H548A); assay: cryo-EM structure; Complex 3: 1 uM TRMT10C/SDR5C1, 10 uM SAH, 10 uM NADH, 5 uM pre-tRNA^His(0,Ser), then 5 uM ELAC2 H548A; 50 mM Tris pH 8.0, 100 mM NaCl, 1 mM TCEP; ELAC2 sits on the pre-tRNA held by the subcomplex; conditions: both partners purified
T5 construct: human ELAC2 (long-form RNase Z), UniProt Q9BQ52, residues 31-826; pET28a-derived vector, His6-TEV site; treated with TEV protease; also called mt-RNase Z; source: E. coli KRX, purified like WT (HisTrap, Resource Q, TEV, SEC); not shown: His6, N-terminal, cleaved
T5 sequence (looked up): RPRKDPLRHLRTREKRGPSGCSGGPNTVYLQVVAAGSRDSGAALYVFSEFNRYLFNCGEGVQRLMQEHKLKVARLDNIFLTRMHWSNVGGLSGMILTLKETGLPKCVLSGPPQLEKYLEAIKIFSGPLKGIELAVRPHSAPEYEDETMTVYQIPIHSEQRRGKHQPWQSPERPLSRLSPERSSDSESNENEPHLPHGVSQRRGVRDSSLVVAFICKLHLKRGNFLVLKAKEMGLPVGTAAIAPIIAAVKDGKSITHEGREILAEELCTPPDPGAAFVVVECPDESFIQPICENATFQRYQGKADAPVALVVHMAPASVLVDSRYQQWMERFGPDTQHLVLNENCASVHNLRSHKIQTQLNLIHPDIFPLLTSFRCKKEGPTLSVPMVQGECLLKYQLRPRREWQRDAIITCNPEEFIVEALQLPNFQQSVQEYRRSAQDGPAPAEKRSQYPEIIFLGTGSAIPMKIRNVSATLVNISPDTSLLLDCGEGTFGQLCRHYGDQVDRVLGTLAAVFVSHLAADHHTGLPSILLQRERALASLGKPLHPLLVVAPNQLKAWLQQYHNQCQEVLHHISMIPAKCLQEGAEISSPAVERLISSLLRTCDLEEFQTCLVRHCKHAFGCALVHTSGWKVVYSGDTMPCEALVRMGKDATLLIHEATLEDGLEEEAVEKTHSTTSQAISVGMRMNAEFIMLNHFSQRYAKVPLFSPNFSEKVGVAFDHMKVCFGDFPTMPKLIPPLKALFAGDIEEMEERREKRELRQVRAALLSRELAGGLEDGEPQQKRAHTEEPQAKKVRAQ

Molecule: Nc1ncnc2c1ncn2[C@@H]1O[C@H](COP(=O)(O)OP(=O)(O)OP(=O)(O)O)[C@@H](O)[C@H]1O [ATP]
Tm [1]: CTP, ATP or CDP to TRNT1 stabilised these enzymes

Molecule: Nc1ccn([C@@H]2O[C@H](COP(=O)(O)OP(=O)(O)O)[C@@H](O)[C@H]2O)c(=O)n1 [CDP]
cryo-EM structure [2]: a molecule of CDP that is likely π-stacked with the substrate A73 nucleotide
Tm [1]: CTP, ATP or CDP to TRNT1 stabilised these enzymes

Molecule: Nc1ccn([C@@H]2O[C@H](COP(=O)(O)OP(=O)(O)OP(=O)(O)O)[C@@H](O)[C@H]2O)c(=O)n1 [CTP]
Tm [1]: CTP, ATP or CDP to TRNT1 stabilised these enzymes

Molecule: NC(=O)C1=CN([C@@H]2O[C@H](COP(=O)(O)OP(=O)(O)OC[C@H]3O[C@@H](n4cnc5c(N)ncnc54)[C@H](O)[C@@H]3O)[C@@H](O)[C@H]2O)C=CC1 [NADH]
Tm [3]: NADH to SDR5C1 and CTP, ATP or CDP to TRNT1 stabilised these enzymes

Molecule: Nc1ncnc2c1ncn2[C@@H]1O[C@H](CSCC[C@H](N)C(=O)O)[C@@H](O)[C@H]1O [SAH]
cryo-EM structure [4]: In all the structures, the TRMT10C catalytic pocket contains SAH
Tm [5]: addition of co-factors or co-factor analogues, i.e. SAH to TRMT10C

Molecule: C[S+](CC[C@H](N)C(=O)O)C[C@H]1O[C@@H](n2cnc3c(N)ncnc32)[C@H](O)[C@@H]1O (stereo partly shown) [SAM]
3H-methyl transfer to pre-tRNA, scintillation counting [6]: Methylation assays, using ^3H-SAM as methyl donor, showed that the TRMT10C/SDR5C1 complex methylates

binding result [7]: binds
binding result [8]: binds
B1: TRMT10C (residues 40-403, without the mitochondrial transport signal) (enzyme, human, UniProt Q7L0Y3 40-403, looked up)
chain: MSSKIPAVTYPKNESTPPSEELELDKWKTTMKSSVQEECVSTISSSKDEDPLAATREFIEMWRLLGREVPEHITEEELKTLMECVSNTAKKKYLKYLYTKEKVKKARQIKKEMKAAAREEAKNIKLLETTEEDKQKNFLFLRLWDRNMDIAMGWKGAQAMQFGQPLVFDMAYENYMKRKELQNTVSQLLESEGWNRRNVDPFHIYFCNLKIDGALHRELVKRYQEKWDKLLLTSTEKSHVDLFPKDSIIYLTADSPNVMTTFRHDKVYVIGSFVDKSMQPGTSLAKAKRLNLATECLPLDKYLQWEIGNKNLTLDQMIRILLCLKNNGNWQEALQFVPKRKHTGFLEISQHSQEFINRLKKAKT
notes: human TRMT10C, tRNA methyltransferase of mitochondrial RNase P, UniProt Q7L0Y3, residues 40-403; The subcomplex was purified on a HisTrap column; also called MTase; source: E. coli BL21(DE3) Rosetta, co-expressed with SDR5C1, purified (HisTrap, SEC, heparin, SEC)
